Test results from patent publication EP2929883A1, “Pyrazole derivatives as dihydroorotate dehydrogenase (DHODH) inhibitors” (INSTITUT PASTEUR, priority 2014, dated 2015).
Values after ≈ are worked out from the molar mass of the structure shown.

What was measured:
recombinant human DHODH = target: T1, recombinant human DHODH (Homo sapiens, UniProt Q02127); assay: recombinant DHODH enzymatic assay (DCIP reduction); assay type: biochemical; details: 25°C, DCIP reduction at 600 nm
T1 construct: N-terminally truncated (first 29 amino acids) human DHODH; made in house; host or cells: E. coli BL21(DE3)/pDIA17
Description: Enzymatic assay DHODH activity was determined at 25°C following the reduction of DCIP at 600 nm (ε = 18,800 M^-1 cm^-1) on a spectrophotometer. […] The reaction medium used for this contained 50 mM Tris-HCl pH 8.0, 0.1% Triton X-100, 0.1 mM L-DHO, 0.025 mM CoQ1 and 0.06 mM DCIP. The reaction was started by addition of the enzyme.

measles virus = assay: microbe, parasite or virus in culture; details: Measles morbillivirus; for IC50: HEK-293T, read-out: IC50 on the measles virus
Jurkat cells = assay: inhibition of the proliferation of Jurkat cells (CellTiter-Glo); assay type: cell-based; details: Homo sapiens, 72 h, read-out: IC50, Jurkat cells proliferation
Description: As a control, cells were treated with DMSO alone. At t=0 and after 72 hours of culture, the number of living cells was determined using the CellTiter-Glo reagent. The inhibition of cellular proliferation is expressed as a percentage relative to DMSO-treated control wells. Presented results correspond to the mean ± SD of two independent experiments.
Jurkat cells were cultured in at 5.10+4 cells per well in flat-bottom 96-well culture dishes. […] Number of living cells was determined by quantification of adenosine triphosphate (ATP) in culture wells using the CellTiter-Glo Assay (Promega) following manufacturer's recommendations.

T1 sequence (Q02127 29-395): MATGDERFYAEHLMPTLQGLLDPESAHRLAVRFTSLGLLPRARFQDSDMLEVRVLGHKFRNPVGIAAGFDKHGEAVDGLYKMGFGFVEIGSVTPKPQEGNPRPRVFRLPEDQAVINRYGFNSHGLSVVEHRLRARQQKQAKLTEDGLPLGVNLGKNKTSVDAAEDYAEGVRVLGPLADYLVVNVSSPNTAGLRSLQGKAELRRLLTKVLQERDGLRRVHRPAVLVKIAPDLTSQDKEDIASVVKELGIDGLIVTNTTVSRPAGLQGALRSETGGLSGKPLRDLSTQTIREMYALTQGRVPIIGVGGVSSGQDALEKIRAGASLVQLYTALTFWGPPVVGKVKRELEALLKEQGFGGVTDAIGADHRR

| Structure (SMILES) | MIC50 (measles virus; 24 h) [µM] | other results |
| --- | --- | --- |
| CC(C)Oc1nn(-c2ncc(C3CC3)cn2)cc1Oc1ccccc1F [example 67, 5-cyclopropyl-2-(4-(2-fluorophenoxy)-3-isopropoxy-1H-pyrazol-1-yl)pyrimidine] | 0.0005 to 0.05 (≈ 0.000177 to 0.0177 µg/mL) | IC50 (recombinant human DHODH): 48 ± 7 nM; IC50 (measles virus): 15 nM |
| Cc1c(C(O)c2ccccc2)c(OC(C)C)nn1-c1ncc(C2CC2)cn1 (centres unmarked) [example 176, (1-(5-cyclopropylpyrimidin-2-yl)-3-isopropoxy-5-methyl-1H-pyrazol-4-yl)(phenyl)methanol] | 0.0005 to 0.05 (≈ 0.000182 to 0.0182 µg/mL) | IC50 (recombinant human DHODH): 16 ± 3 nM; IC50 (measles virus): 1.4 nM |
| CCc1cnc(-n2nc(OC(C)C)c(Oc3c(F)cccc3F)c2C)nc1 [example 8, 2-(4-(2,6-difluorophenoxy)-3-isopropoxy-5-methyl-1H-pyrazol-1-yl)-5-ethylpyrimidine] | 0.0005 to 0.05 (≈ 0.000187 to 0.0187 µg/mL) | IC50 (recombinant human DHODH): 13 ± 1 nM; IC50 (measles virus): 0.66 nM |
| Cc1c(Cc2ccccc2F)c(OC(C)C)nn1-c1ncc(C2CC2)cn1 [example 10, 5-cyclopropyl-2-(4-(2-fluorobenzyl)-3-isopropoxy-5-methyl-1H-pyrazol-1-yl)pyrimidine] | 0.0005 to 0.05 (≈ 0.000183 to 0.0183 µg/mL) | IC50 (recombinant human DHODH): 13 ± 2 nM; IC50 (measles virus): 1.1 nM |
| C/C(O)=C(\C#N)C(=O)Nc1ccc(C(F)(F)F)cc1 [Teriflunomide, reference compound] | – | IC50 (Jurkat cells): ~60000 nM; MIC50 (measles virus): 50 µM (≈ 13.5 µg/mL) |
| c1ccc(-c2ccn(-c3ncc(C4CC4)cn3)n2)cc1 [example 122, 5-cyclopropyl-2-(3-phenyl-1H-pyrazol-1-yl)pyrimidine] | 0.5 to 5 (≈ 0.131 to 1.31 µg/mL) | IC50 (recombinant human DHODH): 22800 ± 2800 nM; IC50 (measles virus): 3800 nM |
| CCOc1nn(-c2ncc(CC)cn2)c(C)c1Oc1ccccc1Br [example 81, 2-(4-(2-bromophenoxy)-3-ethoxy-5-methyl-1H-pyrazol-1-yl)-5-ethylpyrimidine] | 0.05 to 0.5 (≈ 0.0202 to 0.202 µg/mL) | IC50 (recombinant human DHODH): 1150 ± 170 nM; IC50 (measles virus): 124 nM |
| Cc1c(Cc2ccccc2)c(OC(C)C)nn1-c1ccc(C2CC2)cn1 [example 20, 2-(4-benzyl-3-isopropoxy-5-methyl-1H-pyrazol-1-yl)-5-cyclopropylpyridine] | 0.0005 to 0.05 (≈ 0.000174 to 0.0174 µg/mL) | IC50 (recombinant human DHODH): 130 ± 5 nM; IC50 (measles virus): 46 nM |
| CCC(CC)Oc1nn(-c2ncc(C3CC3)cn2)c(C)c1Cc1ccccc1 [example 141, 2-(4-benzyl-5-methyl-3-(pentan-3-yloxy)-1H-pyrazol-1-yl)-5-cyclopropylpyrimidine] | 0.0005 to 0.05 (≈ 0.000188 to 0.0188 µg/mL) | – |
| CCOc1cc(-c2ccc(Cl)cc2)n(-c2ccccn2)n1 [example 147, 2-(5-(4-chlorophenyl)-3-ethoxy-1H-pyrazol-1-yl)pyridine] | > 5 | – |
| Cc1c(Cc2ccccc2)c(=O)n(-c2ncc(Br)cn2)n1-c1ncc(Br)cn1 [example 44, 4-benzyl-1,2-bis(5-bromopyrimidin-2-yl)-5-methyl-1H-pyrazol-3(2H)-one] | 0.5 to 5 (≈ 0.251 to 2.51 µg/mL) | – |
| CCOc1nn(-c2ccc(C3CC3)cn2)c(C)c1Cc1ccccc1 [example 172, 2-(4-benzyl-3-ethoxy-5-methyl-1H-pyrazol-1-yl)-5-cyclopropylpyridine] | 0.05 to 0.5 (≈ 0.0167 to 0.167 µg/mL) | – |
| CC(C)Oc1nn(-c2ncc(C3CC3)cn2)c(Cl)c1Oc1ccccc1F [example 192, 2-(5-chloro-4-(2-fluorophenoxy)-3-isopropoxy-1H-pyrazol-1-yl)-5-cyclopropylpyrimidine] | 0.0005 to 0.05 (≈ 0.000194 to 0.0194 µg/mL) | – |
| COc1cc(-c2ccc(Cl)cc2Cl)n(-c2ccccn2)n1 [example 144, 2-(5-(2,4-dichlorophenyl)-3-methoxy-1H-pyrazol-1-yl)pyridine] | > 5 | – |
| CCc1cnc(-n2nc(OC(C)C)c(Cc3ccccc3F)c2C)nc1 [example 23, 5-ethyl-2-(4-(2-fluorobenzyl)-3-isopropoxy-5-methyl-1H-pyrazol-1-yl)pyrimidine] | 0.0005 to 0.05 (≈ 0.000177 to 0.0177 µg/mL) | – |
| Cc1c(Oc2c(F)cccc2F)c(OC(C)C)nn1-c1ncc(C2CC2)cc1OCc1ccccc1 [example 186, 3-(benzyloxy)-5-cyclopropyl-2-(4-(2,6-difluorophenoxy)-3-isopropoxy-5-methyl-1H-pyrazol-1-yl)pyridine] | 0.05 to 0.5 (≈ 0.0246 to 0.246 µg/mL) | – |

| Structure (SMILES) | MIC50 (measles virus; 24 h) [µM] | other results |
| --- | --- | --- |
| CCOc1nn(-c2ncc(CC)cn2)c(C)c1Oc1ccc(C(F)(F)F)cc1 [example 83, 2-(3-ethoxy-5-methyl-4-(4-(trifluoromethyl)phenoxy)-1H-pyrazol-1-yl)-5-ethylpyrimidine] | > 5 | – |
| CCc1ccc(-n2nc(OC(C)C)c(Cc3ccccc3)c2C)cc1 [example 132, 4-benzyl-1-(4-ethylphenyl)-3-isopropoxy-5-methyl-1H-pyrazole] | 0.5 to 5 (≈ 0.167 to 1.67 µg/mL) | – |
| CC(C)Oc1nn(-c2ccc(C3CC3)cn2)cc1Oc1ccccc1F [example 65, 5-cyclopropyl-2-(4-(2-fluorophenoxy)-3-isopropoxy-1H-pyrazol-1-yl)pyridine] | 0.0005 to 0.05 (≈ 0.000177 to 0.0177 µg/mL) | – |
| CCOc1cc(Cc2ccccc2)n(-c2ccccn2)n1 [example 3, 2-(5-benzyl-3-ethoxy-1H-pyrazol-1-yl)pyridine] | > 5 | – |
| CCOc1nn(-c2ncc(CC)cn2)c(C)c1Cc1ccccc1 [example 25, 2-(4-benzyl-3-ethoxy-5-methyl-1H-pyrazol-1-yl)-5-ethylpyrimidine] | 0.0005 to 0.05 (≈ 0.000161 to 0.0161 µg/mL) | – |
| CCOc1nn(-c2ncc(OC)cn2)c(C)c1Cc1ccccc1 [example 112, 2-(4-benzyl-3-ethoxy-5-methyl-1H-pyrazol-1-yl)-5-methoxypyrimidine] | 0.5 to 5 (≈ 0.162 to 1.62 µg/mL) | – |
| CC(C)Oc1nn(-c2ccc(C3CC3)cn2)cc1Oc1ccccc1 [example 71, 5-cyclopropyl-2-(3-isopropoxy-4-phenoxy-1H-pyrazol-1-yl)pyridine] | 0.05 to 0.5 (≈ 0.0168 to 0.168 µg/mL) | – |
| CCOc1ccn(-c2ncc(CC)cn2)n1 [example 166, 2-(3-ethoxy-1H-pyrazol-1-yl)-5-ethylpyrimidine] | 0.5 to 5 (≈ 0.109 to 1.09 µg/mL) | – |
| Cc1c(Oc2c(F)cccc2F)c(OC(C)C)nn1-c1cnc(C(C)(C)C)nc1 [example 131, 2-tert-butyl-5-(4-(2,6-difluorophenoxy)-3-isopropoxy-5-methyl-1H-pyrazol-1-yl)pyrimidine] | 0.05 to 0.5 (≈ 0.0201 to 0.201 µg/mL) | – |
| Cc1c(Oc2c(F)cccc2F)c(OC(C)C)nn1-c1ccc(C2CC2)cn1 [example 9, 5-cyclopropyl-2-(4-(2,6-difluorophenoxy)-3-isopropoxy-5-methyl-1H-pyrazol-1-yl)pyridine] | 0.0005 to 0.05 (≈ 0.000193 to 0.0193 µg/mL) | – |
| CCOc1nn(-c2ccccn2)c(C)c1-c1ccccc1Cl [example 155, 2-(4-(2-chlorophenyl)-3-ethoxy-5-methyl-1H-pyrazol-1-yl)pyridine] | > 5 | – |
| CCOc1nn(-c2ccc(C3CC3)cn2)c(C)c1I [example 108, 5-cyclopropyl-2-(3-ethoxy-4-iodo-5-methyl-1H-pyrazol-1-yl)pyridine] | > 5 | – |
| Cc1c(Oc2c(F)cccc2F)c(OC(C)C)nn1-c1cnc(C2CC2)cn1 [example 45, 2-cyclopropyl-5-(4-(2,6-difluorophenoxy)-3-isopropoxy-5-methyl-1H-pyrazol-1-yl)pyrazine] | 0.0005 to 0.05 (≈ 0.000193 to 0.0193 µg/mL) | – |
| CCc1cnc(-n2nc(OC(C)C)c(Oc3ccc(F)cc3)c2C)nc1 [example 76, 5-ethyl-2-(4-(4-fluorophenoxy)-3-isopropoxy-5-methyl-1H-pyrazol-1-yl)pyrimidine] | 0.05 to 0.5 (≈ 0.0178 to 0.178 µg/mL) | – |
| Cc1cnc(-n2nc(OC(C)C)c(Oc3c(F)cccc3F)c2C)nc1O [example 116, 2-(4-(2,6-difluorophenoxy)-3-isopropoxy-5-methyl-1H-pyrazol-1-yl)-5-methylpyrimidin-4-ol] | 0.05 to 0.5 (≈ 0.0188 to 0.188 µg/mL) | – |
| CCOc1nn(-c2ccc(C)cn2)c(C)c1Cc1ccccc1 [example 31, 2-(4-benzyl-3-ethoxy-5-methyl-1H-pyrazol-1-yl)-5-methylpyridine] | 0.5 to 5 (≈ 0.154 to 1.54 µg/mL) | – |
